According to publication PMC7312733, “From Graphite to Laccase Biofunctionalized Few-Layer Graphene: A “One Pot” Approach Using a Chimeric Enzyme” (International Journal of Molecular Sciences, 2020):

Molecular target: T1, POXA1b (Pleurotus ostreatus, UniProt O60199)
T1 construct: wild-type laccase secreted by Pichia pastoris; concentrated and dialysed supernatant, not further purified
T1 sequence (O60199 21-533): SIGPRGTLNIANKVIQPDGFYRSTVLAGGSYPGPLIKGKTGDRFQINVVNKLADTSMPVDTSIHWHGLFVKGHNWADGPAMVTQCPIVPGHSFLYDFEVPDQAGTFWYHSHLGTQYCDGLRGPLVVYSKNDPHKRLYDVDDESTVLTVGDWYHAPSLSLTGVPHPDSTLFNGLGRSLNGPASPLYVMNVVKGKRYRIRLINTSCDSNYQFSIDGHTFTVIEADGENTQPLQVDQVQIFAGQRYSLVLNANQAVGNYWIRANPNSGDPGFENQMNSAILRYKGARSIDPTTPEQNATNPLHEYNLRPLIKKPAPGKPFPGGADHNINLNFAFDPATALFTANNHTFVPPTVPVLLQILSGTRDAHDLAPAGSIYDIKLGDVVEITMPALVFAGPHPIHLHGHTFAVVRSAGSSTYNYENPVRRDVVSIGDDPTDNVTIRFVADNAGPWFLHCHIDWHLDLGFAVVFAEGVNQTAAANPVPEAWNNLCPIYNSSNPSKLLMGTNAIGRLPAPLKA
Experiment: spectrophotometric oxidation assay at […] nm
Format: biochemical
Conditions: 2 mM ABTS, 0.1 M sodium citrate pH 3.0, room temperature

CCn1c(=NN=c2sc3cc(S(=O)(=O)O)ccc3n2CC)sc2cc(S(=O)(=O)O)ccc21 [ABTS, 2,2′-azino-bis(3-ethylbenzothiazoline-6-sulphonic acid)]
spectrophotometric oxidation assay at 420 nm: The laccase activity was assayed at room temperature, monitoring the oxidation of ABTS
